# Experimental data published in patent publication US12208091B2, “Compounds for treatment of eye diseases associated with excessive vascularisation” (Active Biotech AB, priority 2019, dated 2025).
# Legend:
# [1] = system: Human retinal microvascular endothelial cells (HRMECs); test: Tube formation assay, combination with aflibercept (contemplated); format: cell-based; conditions: 1 and 10 μM combined with Aflibercept (30 nM)
# Description: Microglia, especially activated microglia play important roles in angiogenesis and maintenance of vascular function haemostasis in the retinal microvasculature (Ding et al 2018). It is contemplated that a co-culture of human retinal microvasculature endothelial cells (HRMEC's) and human microglia from brain can be used to assess the effects of a compound of the disclosure, such as laquinimod, tasquinimod, ABR-215174 or ABR-215691, on neovascularization. A method such as the one outlined below may be used.
# This study may be carried out substantially as outlined in Example 3.
# Tube formation assay is performed using 24-well plate wells coated with Matrigel or in 96-wells as described Ding et al. 2018 (Ding et al. BMC Ophthalmology (2018) 18:249): A 96-well plate is coated with 50 μL/well Matrigel at 37° C. for 30 min. After co-culturing with microglia for 24 h, HRMECs are seeded on the Matrigel at 1.5×10^4 cells/well in 100 μL medium. After a period of time, for example 4 h, tube formation is observed and photographed with a microscope (Leica Microsystems). Images are analysed using the Angiotool plugin (Zudaire et al., 2011, PLoS one, 6, 11, e27385) for ImageJ (NIH public domain). Total tube area, tube length, density, lacunarity, and branching index (number of junctions and endpoints) are quantified.
# [2] = system: Human retinal microvascular endothelial cells (HRMECs); test: LPS-activated microglia-induced HRMEC tube formation (co-culture); format: cell-based; conditions: 10 μM; normalised to vehicle 0%, sulforaphane 100%
# Procedure: The following experimental groups were included in the study: • Group 1: […] Sulforaphane (10 μM, positive control, anti-angiogenic effects) • Group 3: Aflibercept (“Eylea” 40 μg/ml, positive control, partial anti-angiogenic effects) • Group 4: […] Human retinal microvascular endothelial cells (HRMECs) were purchased from Neuromics (Cat #HEC09, Lot #2872) and cultured according to manufacturer's instructions in Endo-Growth media (Cat #EKG001, Lot #EKG0011902269) supplemented with Endothelial Growth Factor (Cat #EKG001, Lot #EGK00125) on AlphaBiocoat coated T25 flasks at 37° C. 5% CO2. […] Human microglia were seeded onto PLL coated cell culture inserts (Sarstedt, Cat #83.3932.040) at 103 000 cells/cm^2. […] The method for co-cultures of microglia and HRMECs was modified from protocol described by Ding et al. 2018 (Ding X, Gu R, Zhang M, Ren H, Shu Q, Xu G, Wu H. Microglia enhanced the angiogenesis, migration and proliferation of co-cultured RMECs. […] PMID: 30223824; PMCID: PMC6142340) and Ji Cho et al. 2019 (Ji Cho M, Yoon […], Park J, Lee J, Park J G, Cho Y L, Hun Kim J, Jang H, Park Y J, Lee S H, Min J K. Oxidative stress-mediated TXNIP loss causes RPE dysfunction. […] PMID: 31615975; PMCID: PMC6802648). Microglia was activated with LPS (100 ng/ml) in microglia complete growth media without FBS with simultaneous treatment of freshly prepared study compounds, Eylea and vehicle for 24 hours. HRMECs were incubated in basal Endo-Growth media for 24 hours before co-culturing. […] Media in microglia inserts containing LPS was replaced to corresponding freshly prepared study compounds, aflibercept and sulforaphane in basal Endo-Growth media. […] 5% CO2, stained with calcein-AM (5 μM) for 30 min and imaged using a fluorescence microscope (Leica Thunder 3D Tissue Imager, Leica Microsystems). Images were analyzed using the AngioTool software (Zudaire E, Gambardella L, Kurcz […] Computational Tool for Quantitative Analysis of Vascular Networks. PLOS ONE 6(11): e27385. https://doi.org/10.1371/journal.pone.0027385) for ImageJ (NIH public domain). Total tube area, tube length, density, lacunarity, and branching index (number of junctions and endpoints) were quantified. Images were analyzed using AngioTool software (NIH, Bethesda, MD; available in the public domain) for the following readouts: average vessels length, total vessels length, vessel area, vessels percentage area, total number of junctions, density of junctions, total number of endpoints, and mean lacunarity. […] Raw data for each of the readouts was plotted and analyzed by ordinary one-way ANOVA with Dunnett's multiple comparisons post-hoc test. […] Effect size data were analyzed by non-parametric Kruskal-Wallis test, with Dunn's multiple comparisons post-hoc test.
smiles,measurement,setting,value
CCN(C(=O)c1c(O)c2c(Cl)cccc2n(C)c1=O)c1ccccc1 [laquinimod],effect on tube formation of combination compared to each compound used as monotherapy,[1],clear additive effect
same,Normalized effect size on average vessel length,[2],53%
